# Marks after values point to notes of the source that are not given here.
# Experiments:
# [1] = tested on: MIA-induced osteoarthritis pain; experiment: MIA-induced osteoarthritis model, weight bearing difference (WBD) test; format: in vivo; settings: rat MIA, oral 3 mg/kg
# Description: Osteoarthritis Pain: To assess the actions of a Compound of Formula (I) for the treatment or prevention of osteoarthritis pain, the rat monosodium iodo-acetate (MIA, i.e., sodium 2-iodoacetate) induced osteoarthritis model was used. Intra-articular injection of MIA causes joint degeneration characterized by osteolysis and swelling, with displacement of the patella, and reductions in bone mineral content and bone mineral density (Pomonis et al., “Development and pharmacological characterization of a rat model of osteoarthritis pain,” Pain 114: 339-346 (2005)). Under isoflurane anaesthesia, an intra-articular injection of 2 mg of MIA (Sigma-Aldrich) in 50 μl of saline was administered through the infrapatellar ligament of the knee joint of the right hind leg of the male, 6 week old Crl:CD(SD) rats. Control rats received an intra-articular injection of 50 μl of saline into the knee joint of the right hind leg. The left knee joint of all rats was untreated. […] Thus, in the assessment for osteoarthritis pain relief through gripping capability determinations, the 24 hour time point was the start of the next day when drug-in-vehicle was again orally administered (24 hours after the prior administration) for certain dosages. […] Weight Bearing Difference Test as an Assessment of Osteoarthritis Related Pain: The weight bearing difference test provides an accepted assessment of the efficacy of clinically useful analgesic drugs with respect of osteoarthritis related pain (see Pomonis et al. (2005)). WBD was assessed using a Linton Incapacitance Tester (Linton Instrumentation, Norfolk, UK). Rats were placed on the apparatus so that they were standing on their hind legs, and allowed to acclimate to the apparatus. When stationary, the weight born on each leg was measured over a 3s period. Three readings were taken for each rat at each time point; the average of the three readings was used for data analysis. WBD was expressed as “% WR”, i.e., the percentage of weight born on the MIA-injected right hind leg, using the following formula: [formula] where WR is the weight on the right hind leg and WL is the weight on the left (untreated) hind leg. […] The “% WRR”, i.e., the percentage reversal of the % WR impediment occurring post-MIA injection, was determined for each dosage at each time point using the following formula: [formula] where (% WR)Post-Drug is the % WR determined at each post-oral-administration time-point for each dose of each administered substance, (% WR)Pre-Drug is the % WR determined pre-oral-administration of each administered substance, and (% WR)Control Rat is the % WR determined for control rats (receiving the saline injection into the right hind leg knee joint). With the exception of the controls (i.e., celecoxib, vehicle) where the student's t-test was used, Dunnett's test was conducted for the % WRR.
# [2] = tested on: MIA-induced osteoarthritis pain; experiment: MIA-induced osteoarthritis model, grip force test; format: in vivo, rat; settings: for % GFR [mean]: rat MIA, grip force, oral 3 mg/kg
# Description: Osteoarthritis Pain: To assess the actions of a Compound of Formula (I) for the treatment or prevention of osteoarthritis pain, the rat monosodium iodo-acetate (MIA, i.e., sodium 2-iodoacetate) induced osteoarthritis model was used. Intra-articular injection of MIA causes joint degeneration characterized by osteolysis and swelling, with displacement of the patella, and reductions in bone mineral content and bone mineral density (Pomonis et al., “Development and pharmacological characterization of a rat model of osteoarthritis pain,” Pain 114: 339-346 (2005)). Under isoflurane anaesthesia, an intra-articular injection of 2 mg of MIA (Sigma-Aldrich) in 50 μl of saline was administered through the infrapatellar ligament of the knee joint of the right hind leg of the male, 6 week old Crl:CD(SD) rats. Control rats received an intra-articular injection of 50 μl of saline into the knee joint of the right hind leg. The left knee joint of all rats was untreated. Two weeks after MIA injection, rats were assessed for osteoarthritis pain related-behaviors immediately prior to and 1, 3, 5, 7, and 24 hours after oral drug-in-vehicle administration (for day 1) by determining their weight-bearing capabilities, via the weight bearing difference (WBD) test, and their gripping capabilities, via the grip force test, each as described below. Thus, in the assessment for osteoarthritis pain relief through gripping capability determinations, the 24 hour time point was the start of the next day when drug-in-vehicle was again orally administered (24 hours after the prior administration) for certain dosages. On days 2, 3, and 4, gripping capability response was determined 3 and 24 hours thereafter.
# The grip force (GF) of the hind legs was assessed using a Animal Grip Strength System (San Diego Instruments, San Diego, Calif.). Rats were gently restrained and allowed to grasp the wire mesh strain gauge with their hind legs. The animals were then moved in a rostral-caudal direction until they let go of the gauge. The force (in g) at which the rat let go was recorded. Each animal was tested twice at approximately 3-10 minute intervals at each time point and the average of the two readings was used for the GF in data analysis.
# Grip force, normalized to account for the weight of each animal, was expressed as “GF/B”, i.e., the ratio of GF to body weight, where GF is the grip force in grams and B is the body weight of the animal in kg. The “% GFR”, i.e., the percentage reversal of the (normalized) grip force impediment occurring post-MIA injection, was determined for each dosage at each time point using the following formula:
# [formula] where (GF/B)Drug is the GF/B determined at each post-oral-administration time-point for each dose of each substance administered to MIA-injected animals, (GF/B)Vehicle is the GF/B determined at each post-oral-administration time-point for the vehicle control administered to MIA-injected animals, and (GF/B)Control Rat is the GF/B determined for control rats (saline-injected animals receiving orally-administered vehicle only). With the exception of the controls (i.e., celecoxib, vehicle) where the student's t-test was used, Dunnett's test was conducted for the % GFR. In either instance, values with p <0.05 were considered to be statistically significant.
# [3] = tested on: neuropathic mechanical hyperalgesia after partial sciatic nerve ligation; experiment: Seltzer model (partial sciatic nerve ligation) of neuropathic pain, paw withdrawal threshold; format: in vivo, rat; settings: for % Reversal [mean ± SEM]: rat
# Experimental: In the Seltzer model, the partial sciatic nerve ligation model of neuropathic pain was used to produce neuropathic hyperalgesia in rats (Seltzer et al., “A Novel Behavioral Model of Neuropathic Pain Disorders Produced in Rats by Partial Sciatic Nerve Injury,” Pain 43:205-218 (1990)). Partial ligation of the left sciatic nerve was performed under isoflurane/O2 inhalation anaesthesia. Following induction of anesthesia, the left thigh of the male, 6-7 week old Jcl:SD rat was shaved. The sciatic nerve was exposed at high thigh level through a small incision and was carefully cleared of surrounding connective tissues at a site near the trocanther just distal to the point at which the posterior biceps semitendinosus nerve branches off of the common sciatic nerve. A 7-0 silk suture was inserted into the nerve with a ⅜ curved, reversed-cutting mini-needle and tightly ligated so that the dorsal ⅓ to ½ of the nerve thickness was held within the ligature. The wound was closed with a single muscle suture (4-0 nylon (Vicryl)) and vetbond tissue glue. The wound area was then dusted with antibiotic powder. Sham treatment involved an identical surgical procedure except that the sciatic nerve was not manipulated or ligated.
# Following surgery, animals were weighed and placed on a warm pad until they recovered from anesthesia. Animals were then returned to their home cages until behavioral testing began. The animal was assessed for response to noxious mechanical stimuli by determining PWT for the rear paw of the animal, as described below, prior to surgery (baseline), then immediately prior to and 1, 3, 5, 7, and 24 hours after oral drug-in-vehicle administration (for day 1). Thus, the 24 hour time point was the start of the next day when drug-in-vehicle was again orally administered (24 hours after the prior administration). On days 2 and 3, PWT response was determined 1, 3, and 24 hours thereafter. Percentage reversal of neuropathic hyperalgesia at each of the specified times after administration was defined as: […]
# Additionally, 10 mg/kg of pregabalin (Kemprotec, Ltd., Middlesbrough, UK), an anticonvulsant accepted for relief of particular neuropathic pain, in vehicle and the vehicle alone (0.5% weight/volume methylcellulose (400cP, Wako Pure Chemical Industries, Ltd.)/aqueous solution) were orally administered as controls. […] Ten rats that underwent partial ligation of the left sciatic nerve were used for each treatment group. Dunnett's test was conducted for the % reversal; values with p<0.05 were considered to be statistically significant.
# Additionally, as a control the rats underwent sham surgery in which an identical surgical procedure was followed with regard to the right thigh but the sciatic nerve was neither manipulated nor ligated.
# Response to Mechanical Stimuli as an Assessment of Mechanical Hyperalgesia: The paw pressure assay was used to assess mechanical hyperalgesia. […] Biochem. and Behavior 31:451-455 (1988). The maximum weight that could be applied to the hind paw was set at 250 g and the end point was taken as complete withdrawal of the paw. PWT was determined once for each rat at each time point and either only the affected (ipsilateral) paw was tested, or both the ipsilateral and contralateral (non-injured) paw were tested.
structure (smiles),measurement,setting,value
"Cc1ccc(-c2cc(C(F)(F)F)nn2-c2ccc(S(N)(=O)=O)cc2)cc1 [Celecoxib, celecoxib, reference compound]",% WRR [mean],[1]; 1 h after administration,10.2^† %
same,% WRR [mean],"[1]; 1 h after administration, listed as celecoxib",10.2%
same,% WRR [mean],[1]; 3 h after administration,27.8^†† %
same,% WRR [mean],"[1]; 3 h after administration, listed as celecoxib",27.8%
same,% WRR [mean],[1]; 5 h after administration,14.1^†† %
same,% WRR [mean],"[1]; 5 h after administration, listed as celecoxib",14.1%
same,% WRR [mean],[1]; 7 h after administration,6.0^† %
same,% WRR [mean],"[1]; 7 h after administration, listed as celecoxib",6.0%
same,% WRR [mean],[1]; 24 h after administration,2.0%
same,maximum analgesic efficacy relative to the Example 10 product at 1 mg/kg,"[2]; 30.0% reversal (3 mg/kg, 3 h, day 1) as share of the 45.2% reversal of the product at 1 mg/kg",about 66.4%
same,maximum analgesic efficacy relative to the Example 10 product at 3 mg/kg,"[2]; 30.0% reversal (3 mg/kg, 3 h, day 1) as share of the 53.6% reversal of the product at 3 mg/kg",~56.0%
same,% GFR [mean],[2]; 1 h (day 1),22.6^†† %
same,% GFR [mean],[2]; 3 h (day 1),30.0^†† %
same,% GFR [mean],"[2]; 3 h (day 1), listed as celecoxib",30.0%
same,% GFR [mean],[2]; 5 h (day 1),20.9^†† %
same,% GFR [mean],[2]; 7 h (day 1),3.6%
same,% GFR [mean],[2]; 24 h after day 1 dose (0 hrs day 2),−3.6%
"CC(C)C[C@H](CN)CC(=O)O [pregabalin, reference compound]",maximum analgesic efficacy relative to the Example 10 product at 10 mg/kg,"[3]; 24.73% reversal (10 mg/kg, 3 h, day 1) as share of the 34.17% reversal of the product at 10 mg/kg",about 72%
same,% Reversal [mean ± SEM],"[3]; pregabalin control 10 mg/kg oral once daily, 1 hours (day 2) after administration",16.74 ± 4.23 %
same,% Reversal [mean ± SEM],"[3]; pregabalin control 10 mg/kg oral once daily, 1 hours (day 3) after administration",17.16 ± 6.64 %
same,% Reversal [mean ± SEM],"[3]; pregabalin control 10 mg/kg oral once daily, 3 hours (day 2) after administration",23.21 ± 2.30 %
same,% Reversal [mean ± SEM],"[3]; pregabalin control 10 mg/kg oral once daily, 3 hours (day 3) after administration",26.56 ± 4.95 %
same,% Reversal [mean ± SEM],"[3]; pregabalin control 10 mg/kg oral once daily, 24 hours (0 hrs day 2) after administration",−2.84 ± 4.74%
same,% Reversal [mean ± SEM],"[3]; pregabalin control 10 mg/kg oral once daily, 24 hours (0 hrs day 3) after administration",1.70 ± 4.29%
same,% Reversal [mean ± SEM],"[3]; pregabalin control 10 mg/kg oral once daily, 24 hours (0 hrs day 4) after administration",−3.67 ± 2.66%
same,% Reversal [mean ± SEM],"[3]; pregabalin control 10 mg/kg oral, 1 hours (day 1) after administration",24.05 ± 6.46 %
same,% Reversal [mean ± SEM],"[3]; pregabalin control 10 mg/kg oral, 3 hours (day 1) after administration",24.73 ± 4.12 %
same,% Reversal [mean ± SEM],"[3]; pregabalin control 10 mg/kg oral, 5 hours (day 1) after administration",19.97 ± 4.79 %
same,% Reversal [mean ± SEM],"[3]; pregabalin control 10 mg/kg oral, 7 hours (day 1) after administration",11.89 ± 3.16 %
same,% reversal of neuropathic hyperalgesia,"[3]; rat Seltzer model, oral 10 mg/kg, 3 h after day 1 administration (maximum)",24.73%
